Here are results for twelve molecules from ChEMBL document CHEMBL3217737, “Discovery of a highly selective FLT3 kinase inhibitor from phenotypic cell viability profiling” (Medchemcomm, 2013).

Each structure is given as a SMILES string.

The test system of one series is MDA-MB-231. The series can be described thus: Cytotoxicity against human MDA-MB-231 cells assessed as cell viability at 1 uM after 24 hrs by WST1 assay. Type of series: functional. The conditions noted are these: MDA-MB-231, 24 h, read-out: Activity. For orientation: Formazan colour is commonly taken as a measure of viable cells.
Another series deals with MCF7. The series can be described thus: Cytotoxicity against human MCF7 cells assessed as cell viability at 1 uM after 24 hrs by WST1 assay. The series is classed as functional. The conditions noted are these: MCF7, 24 h, read-out: Activity.
Series [1] can be described thus: Cytotoxicity against rat L6 cells assessed as cell viability at 1 uM after 24 hrs by WST1 assay. Type of series: cell-based. The conditions noted are these: read-out: Activity.
The nature of series [2]: Cytotoxicity against mouse NIH/3T3 cells assessed as cell viability at 1 uM after 24 hrs by WST1 assay. The series is classed as cell-based, NIH3T3. The conditions noted are these: read-out: Activity.
Series [3] in a line: Cytotoxicity against human U87MG cells assessed as cell viability at 1 uM after 24 hrs by WST1 assay. Type of series: functional, U-87MG ATCC. The conditions noted are these: U-87 MG, read-out: Activity.
The next series deals with MV4-11. Briefly: Cytotoxicity against human MV4-11 cells assessed as cell viability at 1 uM after 24 hrs by WST1 assay. The series is classed as functional. The conditions noted are these: MV4-11, 24 h, read-out: Activity.

In the case of `COc1ccc(-c2n[nH]c3ncc(-c4ccccc4N)cc23)cc1`, the viability at 1 µM with MDA-MB-231 came to 101%; with MCF7, 102%; in series [3], 94%; in the series on MV4-11, 89%. Moreover, the figures for the viability at 24 h, 1 µM in series [1] and in series [2] were 108% and 94%, respectively.
`COC(=O)c1cccc(N)c1-c1cnc2[nH]nc(-c3ccc(OC)cc3)c2c1`: the viability at 1 µM was 110% in the series with MDA-MB-231, 89% in the series with MCF7, 102% in series [3] and 90% with MV4-11. Also, the viability at 24 h, 1 µM in series [1] is 105%; in series [2], 101%.
With `CNc1ccccc1-c1cnc2[nH]nc(-c3ccc(OC)cc3)c2c1`, the viability at 1 µM in the series on MDA-MB-231 was 114%; with MCF7 it was 101%; in series [3] it was 100%; in the series on MV4-11 it was 86%. For the same molecule, the viability at 24 h, 1 µM in series [1] turned out to be 109%; in series [2], 106%.
As to `COc1ccc(-c2n[nH]c3ncc(-c4c(N)cccc4[N+](=O)[O-])cc23)cc1`, the viability at 1 µM is 123% in the series on MDA-MB-231, 97% with MCF7, 104% in series [3] and 93% with MV4-11. For the same molecule, the viability at 24 h, 1 µM turned out to be 110% in series [1] and 102% in series [2].
On to `COc1ccc(-c2n[nH]c3ncc(-c4cc(Br)ccc4N)cc23)cc1`, for which the viability at 1 µM in the series with MDA-MB-231 stood at 112%; in the series with MCF7 it was 88%; in series [3], 100%; in the series on MV4-11 it was 82%. For the same molecule, the viability at 24 h, 1 µM in series [1] was determined as 104%; in series [2], 108%.
Regarding `COc1ccc(-c2n[nH]c3ncc(-c4ccccc4NCc4ccccc4)cc23)cc1`, the viability at 1 µM came to 109% in the series on MDA-MB-231, 98% with MCF7, 95% in series [3] and 97% with MV4-11. For the same molecule, the viability at 24 h, 1 µM in series [1] was 102%; in series [2] it was 99%.
In the case of `Nc1cc(Cl)ccc1-c1cnc2[nH]nc(-c3ccccc3)c2c1`, the viability at 1 µM is 105% with MDA-MB-231, 103% in the series with MCF7, 101% in series [3] and 85% with MV4-11. The viability at 24 h, 1 µM was found to be 96% in series [1] and 111% in series [2].
In the case of `COc1ccc(-c2n[nH]c3ncc(-c4ccccc4NC(=O)NCc4ccccc4)cc23)cc1`, the viability at 1 µM in the series with MDA-MB-231 stood at 101%; in the series on MCF7, 99%; in series [3], 94%; in the series on MV4-11, 104%. For the same molecule, the viability at 24 h, 1 µM in series [1] is 104%; in series [2], 94%.
With `COc1ccc(-c2n[nH]c3ncc(-c4cc([N+](=O)[O-])ccc4N)cc23)cc1`, the viability at 1 µM came to 114% with MDA-MB-231, 102% with MCF7, 97% in series [3] and 92% in the series with MV4-11. In addition, the viability at 24 h, 1 µM is 92% in series [1] and 99% in series [2].
For `COc1ccc(-c2n[nH]c3ncc(-c4ccc(F)cc4N)cc23)cc1`, the viability at 1 µM with MDA-MB-231 amounted to 95%; in the series on MCF7, 97%; in series [3], 94%; in the series on MV4-11 it was 94%. For the same molecule, the viability at 24 h, 1 µM in series [1] and in series [2] was 104% throughout.
As to `Cc1n[nH]c2ncc(-c3ccc(Cl)cc3N)cc12`, the viability at 1 µM worked out at 107% in the series with MDA-MB-231, 102% in the series on MCF7, 99% in series [3] and 91% in the series on MV4-11. Further, the viability at 24 h, 1 µM came out at 102% in series [1] and 103% in series [2].
In the case of `COc1ccc(-c2n[nH]c3ncc(-c4cccc(F)c4N)cc23)cc1`, the viability at 1 µM in the series on MDA-MB-231 stood at 109%; in the series with MCF7, 100%; in series [3] it was 94%; in the series with MV4-11, 82%. The values for the viability at 24 h, 1 µM in series [1] and in series [2] were 100% and 108%, respectively.
